Laboratory results published in US20230346744A1, “SULFUR-CONTAINING COMPOUND USEFUL FOR TREATING OR PREVENTING PRESBYOPIA” (SANTEN PHARMACEUTICAL CO., LTD., priority 2020, published 2023).

Key:
Assay type in all cases: in vivo
C57BL/6J mice [1] = test: Pharmacological Test-3: once-daily instillation of Compounds 1, 2 and 3 for 2 weeks, lens elasticity; conditions: 0.03% sample, 2.5 μL/eye, once per day for 14 days, 8-month-old mice, vs vehicle control
Description: The effect of once-daily instillation of each of Compounds 1, 2 and 3 for 2 weeks on the lens elasticity was examined.
(§1) A vehicle comprising 1.0% (w/v) of CO35, 0.1% (w/v) of ethyl pyruvate, 0.269% (w/v) of sodium dihydrogenphosphate monohydrate (NaH2 PO4.H2O), 0.433% (w/v) of disodium hydrogenphosphate (Na2HPO4), 0.2% (w/v) of hydroxypropyl methylcellulose, 0.5% (w/v) of NaCl, and purified water (appropriate amount) was prepared.
Each of Compounds 1 and 2 was stirred with the addition of the vehicle to give a 0.1% (w/v) solution.
To Compound 3 was added the vehicle to give a 0.1% (w/v) suspension. The resulting 0.1% (w/v) suspension was diluted with the vehicle to give a 0.03% (w/v) solution. Further, the resulting 0.03% (w/v) solution was diluted with the vehicle to give a 0.01% (w/v) solution.
After preparation, all were frozen.
1) Each test sample (2.5 μL/eye) was instilled into both eyes of 8-month-old C57BL/6J mice with a Pipetman once per day (around 9:00) for 14 days.
(§2) 2) After the final instillation, the mice were euthanized by carbon dioxide inhalation, and then the eyeballs were extracted and rinsed with Hank's balanced salt solution (HBSS).
(§3) 3) The sclera near the optic nerve was cut with a razor, the lens was removed through the incision, and the removed lens was immersed in HBSS.
(§4) 4) The lens was placed on a glass slide, and an all-in-one fluorescence microscope BZ-9000 (Keyence) was used to capture an image of the lens (Image a).
(§5) 5) Next, one cover glass (Corning(registered trade mark) 22×22 mm Square) was placed on the lens, and an image in which the thickness of the lens changed due to the weight was similarly captured (Image b).
(§6) 6) A change in the lens diameter was calculated from Equation 1 wherein the lens diameter of Image a is subtracted from the lens diameter of Image b, as described below. Then, the lens elasticity improvement of each sample group compared with the vehicle control group was calculated from Equation 2 described below. The mean value of each group was based on 10 eyes.
(§7) Change in lens diameter=Lens diameter in Image b of each test sample−Lens diameter in Image a of each test sample Equation 1
(§8) Lens elasticity improvement of each sample group=Mean change in lens diameter of each Test sample group−Mean change in lens diameter of Vehicle control group Equation 2

Japanese White rabbit = test: Ocular irritation test-1 (McDonald-Shadduck method); design: key to Irritation Score of anterior segment of the eye: Discharge / Irritation Score of anterior segment of the eye: Anterior chamber flare / Irritation Score of anterior segment of the eye: Light reflex / Irritation Score of anterior segment of the eye: Iris / Irritation Score of anterior segment of the eye: Corneal opacity / Irritation Score of anterior segment of the eye: Corneal angiogenesis / Irritation Score of anterior segment of the eye: Corneal epithelial disorder / Irritation Score of anterior segment of the eye: Conjunctival hyperemia / Irritation Score of anterior segment of the eye: Conjunctival edema: —: No noteworthy findings; conditions: 50 μL/eye, 10 times at 30-minute intervals
Description: A vehicle eye drop and a 0.03% (w/v) Compound 1 eye drop were prepared in the same manner as Preparation of Test sample in Pharmacological test-1.
The vehicle eye drop, and the 0.03% (w/v) Compound 1 eye drop were each instilled into one eye of a Japanese White rabbit at a dose volume of 50 μL/eye with pipette 10 times at 30-minute intervals. One hour after the final instillation, ocular irritation of anterior segment of the eye was evaluated using a slit lamp according to the McDonald-Shadduck method.
Observation for corneal epithelial disorder was conducted 3 hours after the final instillation.
The ocular irritation of anterior segment of the eye was scored according to the following criteria: • 1: slight; +2: moderate; +3: severe

C57BL/6J mice [2] = test: Pharmacological Test-2: once-daily instillation of Compound 1 for 2 weeks, lens elasticity; conditions: once per day for 14 days; for Lens elasticity improvement: 2.5 μL/eye, 9-month-old mice, vs vehicle control
Description: The effect of once-daily instillation of Compound 1 for 2 weeks on the lens elasticity was examined.
as §1
To Compound 1 was added the vehicle to give a 0.1% (w/v) solution. The resulting 0.1% (w/v) solution was diluted with the vehicle to give a 0.03% (w/v) solution. Further, the resulting 0.03% (w/v) solution was diluted with the vehicle to give a 0.01% (w/v) solution. After preparation, all were frozen.
1) Each test sample (2.5 μL/eye) was instilled into both eyes of 9-month-old C57BL/6J mice with a Pipetman once per day (around 9:00) for 14 days.
as §2, §3, §4, §5
(§9) 6) A change in the lens diameter was calculated from Equation 1 wherein the lens diameter of Image a is subtracted from the lens diameter of Image b, as described below. Then, the lens elasticity improvement of each sample group compared with the vehicle control group was calculated from Equation 2 described below. The mean value of the vehicle control group was based on 9 eyes, and the mean value of each of the sample groups of Compound 1 was based on 10 eyes.
as §7, §8

C57BL/6J mice [3] = test: Pharmacological Test-1: 3 times-daily instillation for 2 weeks, lens elasticity; conditions: 3 times per day for 14 days; for Lens elasticity improvement: 0.03% (w/v) sample, 2.5 μL/eye, 9-month-old mice, vs vehicle control; for Lens elasticity effect compared with the vehicle control group (in words): 0.03% sample group
Description: The effect of 3 times-daily instillation of Compound 1 for 2 weeks on the lens elasticity was examined. The tests were conducted with reference to the methods described in InvestOphthalmol Vis Sci, 57, 2851-2863, 2016.
A vehicle comprising 1.0% (w/v) of polyoxyl 35 castor oil (hereinafter also referred to as “CO35”), 0.1% (w/v) of ethyl pyruvate, 0.269% (w/v) of sodium dihydrogenphosphate monohydrate (NaH2 PO4.H2O), 0.433% (w/v) of disodium hydrogenphosphate (Na2 HPO4), 0.2% (w/v) of hydroxypropyl methylcellulose, 0.5% (w/v) of NaCl, and purified water (appropriate amount) was prepared.
Compound 1 was stirred with the addition of the vehicle to give a 0.03% (w/v) solution. After preparation, it was refrigerated.
EVO6 was stirred with the addition of the vehicle to give a 0.03% (w/v) solution, which was for comparison in the test for Compound 1. After preparation, it was refrigerated.
1) Each test sample (2.5 μL/eye) was instilled into both eyes of 9-month-old C57BL/6J mice with a Pipetman 3 times per day (around 9:00, 13:00 and 17:00) for 14 days.
as §2, §3, §4, §5
as §9, with “calculated from the following Equation 1” for “calculated from Equation 1”, “of Image b. Then, the” for “of Image b, as described below. Then, the”, “based on 8 eyes, and” for “based on 9 eyes, and”, “Compound 1 and EVO6 was based” for “Compound 1 was based”
as §7, §8

C57BL/6J mice [4] = test: Reference Pharmacological Test 1: effect of EV06 instillation on lens elasticity; conditions: 3 times per day for 15 to 17 days; for Lens elasticity improvement: 2.5 μL/eye, 8-month-old mice, vs vehicle control
Description: The effect of lipoic acid choline ester (EV06) on the lens elasticity was examined. The tests were conducted with reference to the methods described in InvestOphthalmol Vis Sci, 57, 2851-2863, 2016. EV06 is a compound represented by the following formula: A vehicle comprising 0.1% (w/v) of ethyl pyruvate, 0.269% (w/v) of sodium dihydrogenphosphate monohydrate (NaH2PO4.H2O), 0.433% (w/v) of disodium hydrogenphosphate (Na2HPO4), 0.2% (w/v) of hydroxypropyl methylcellulose, 0.5% (w/v) of NaCl, and purified water (appropriate amount) was prepared. EVO6 was sonicated with the addition of the vehicle to prepare a 5% (w/v) suspension. The resulting 5% (w/v) suspension was diluted with the vehicle to prepare a 1.5% (w/v) solution. Further, the resulting 1.5% (w/v) solution was diluted with the vehicle to prepare a 0.5% (w/v) solution. The total amount of each sample to be used in one day was prepared before use. 1) Each test sample (2.5 μL/eye) was instilled into the right eye of 8-month-old C57BL/6J mice with a Pipetman 3 times per day (around 9:00, 13:00 and 17:00) for 15 to 17 days. 2) After the final instillation, the mice were euthanized by carbon dioxide inhalation, and then the eyeballs were extracted and rinsed with Hank's balanced salt solution (HBSS). 3) The sclera near the optic nerve was cut with a razor, the lens was removed through the incision, and the removed lens was immersed in HBSS. 4) The lens was placed on a glass slide, and an all-in-one fluorescence microscope BZ-9000 (Keyence) was used to capture an image of the lens (Image a). 5) Next, one cover glass (Corning^(registered trade mark) 22×22 mm Square) was placed on the lens, and an image in which the thickness of the lens changed due to the weight was similarly captured (Image b). 6) A change in the lens diameter was calculated from Equation 1 wherein the lens diameter of Image a is subtracted from the lens diameter of Image b, as described below. Then, the lens elasticity improvement of each sample group compared with the vehicle control group was calculated from Equation 2 described below. The mean of the vehicle control group was based on 6 eyes and the mean of each EV06 sample group was based on 12 eyes. Change in lens diameter=Lens diameter in Image b of each test sample−Lens diameter in Image a of each test sample Equation 1 Lens elasticity improvement of each sample group=Mean change in lens diameter of each EV06 sample group−Mean change in lens diameter of Vehicle control group equation 2

C57BL/6J mice [5] = test: Pharmacological Test-5: once-daily instillation of Compounds 5, 6 and 7 for 2 weeks, lens elasticity; conditions: once per day for 14 days
Description: The effect of once-daily instillation of each of Compounds 5, 6, and 7 for 2 weeks on the lens elasticity was examined.
as §1
Compound 5 was stirred with the addition of the vehicle to give a 0.1% (w/v) suspension. The resulting 0.1% (w/v) suspension was diluted with the vehicle to give a 0.03% (w/v) suspension.
Compound 6 was stirred with the addition of the vehicle to give a 0.1% (w/v) suspension. The resulting 0.1% (w/v) a suspension was diluted with the vehicle to give a 0.03% (w/v) suspension.
Compound 7 was stirred with the addition of the vehicle to give a 0.1% (w/v) suspension.
After preparation, all were refrigerated.
EVO6 was stirred with the addition of the vehicle to give a 0.03% (w/v) solution, which was for comparison in the test for Compounds 5, 6 and 7. After preparation, it was refrigerated.
1) Each test sample (2.5 μL/eye) was instilled into both eyes of 8-month-old C57BL/6J mice with a Pipetman once per day (around 13:30) for 14 days.
as §2, §3, §4, §5
as §6, with “8” for “10”
as §7, §8

[6] = 0.03% eye drop, 1 hour after the final instillation

OCCCCC[C@@H](S)CCS [Compound 1, (R)-6,8-Dimercaptooctan-1-ol]
Lens elasticity improvement (C57BL/6J mice [1]): 55.5 μm | Irritation in anterior segment of the eye (in words) (Japanese White rabbit; 0.03% (w/v) eye drop): No irritation was observed | Irritation Score of anterior segment of the eye: Anterior chamber flare (Japanese White rabbit; [6]): — | Irritation Score of anterior segment of the eye: Conjunctival edema (Japanese White rabbit; [6]): — | Irritation Score of anterior segment of the eye: Corneal angiogenesis (Japanese White rabbit; [6]): — | Irritation Score of anterior segment of the eye: Corneal opacity (Japanese White rabbit; [6]): — | Irritation Score of anterior segment of the eye: Discharge (Japanese White rabbit; [6]): — | Irritation Score of anterior segment of the eye: Iris (Japanese White rabbit; [6]): — | Irritation Score of anterior segment of the eye: Light reflex (Japanese White rabbit; [6]): — | Irritation Score of anterior segment of the eye: Conjunctival hyperemia (Japanese White rabbit; 0.03% eye drop, 1 hour after the final instillation, scale +1 slight, +2 moderate, +3 severe): — | Irritation Score of anterior segment of the eye: Corneal epithelial disorder (Japanese White rabbit; 0.03% eye drop, 3 hours after the final instillation): — | Lens elasticity improvement (C57BL/6J mice [2]; 0.01% (w/v) sample): 17.5 μm | Lens elasticity improvement (C57BL/6J mice [2]; 0.03% (w/v) sample): 53.0 μm | Lens elasticity improvement (C57BL/6J mice [2]; 0.1% (w/v) sample): 63.3 μm | Lens elasticity effect (in words) (C57BL/6J mice [2]; all of the concentrations of 0.01%, 0.03% and 0.1%): showed an elasticity improving effect | Lens elasticity improvement (C57BL/6J mice [3]): 53.8 μm | Lens elasticity effect compared with the vehicle control group (in words) (C57BL/6J mice [3]): potent elasticity improving effect

C[N+](C)(C)CCOC(=O)CCCC[C@@H]1CCSS1.[Cl-] [EV06, lipoic acid choline ester, reference compound]
Lens elasticity improvement (C57BL/6J mice [4]; 0.5% (w/v) sample): 28.8 μm | Lens elasticity effect compared with the vehicle control group (in words) (C57BL/6J mice [4]; 0.5%, 1.5% and 5% groups): elasticity improving effect | Lens elasticity improvement (C57BL/6J mice [4]; 1.5% (w/v) sample): 47.3 μm | Lens elasticity improvement (C57BL/6J mice [4]; 5% (w/v) sample): 48.7 μm | Lens elasticity improvement (C57BL/6J mice [3]): 3.6 μm | Lens elasticity effect compared with the vehicle control group (in words) (C57BL/6J mice [3]): no improvement in lens elasticity | Lens elasticity effect (in words) (C57BL/6J mice [5]; 0.03% sample group): no elasticity improving effect | Lens elasticity improvement (C57BL/6J mice [5]; 0.03% sample, 2.5 μL/eye, 8-month-old mice, vs vehicle control): 3.1 μm
